Data as given in the kinase profiling compilation of Christmann-Franck et al. (2016).

Experiments:
Experiment in all cases: KINOMEscan competition binding
Details in all cases: compound 10.0 µM
[1] = molecular target: MAP3K5 (human) (UniProt Q99683)
[2] = molecular target: DAPK2 (human) (UniProt Q9UIK4)
[3] = molecular target: ROCK2 (human) (UniProt O75116)
[4] = molecular target: MUSK (human) (UniProt O15146)
[5] = molecular target: MAP3K10 (human) (UniProt Q02779)
[6] = molecular target: EPHA2 (human) (UniProt P29317)
[7] = molecular target: CAMK4 (human) (UniProt Q16566)
[8] = molecular target: MAP2K1 (human) (UniProt Q02750)
[9] = molecular target: PRKD2 (human) (UniProt Q9BZL6)
[10] = molecular target: MKNK2 (human) (UniProt Q9HBH9)
[11] = molecular target: MYO3B (human) (UniProt Q8WXR4)
[12] = molecular target: CAMK1D (human) (UniProt Q8IU85)
Sequence of CAMK1D (human) (Q8IU85 whole entry, looked up): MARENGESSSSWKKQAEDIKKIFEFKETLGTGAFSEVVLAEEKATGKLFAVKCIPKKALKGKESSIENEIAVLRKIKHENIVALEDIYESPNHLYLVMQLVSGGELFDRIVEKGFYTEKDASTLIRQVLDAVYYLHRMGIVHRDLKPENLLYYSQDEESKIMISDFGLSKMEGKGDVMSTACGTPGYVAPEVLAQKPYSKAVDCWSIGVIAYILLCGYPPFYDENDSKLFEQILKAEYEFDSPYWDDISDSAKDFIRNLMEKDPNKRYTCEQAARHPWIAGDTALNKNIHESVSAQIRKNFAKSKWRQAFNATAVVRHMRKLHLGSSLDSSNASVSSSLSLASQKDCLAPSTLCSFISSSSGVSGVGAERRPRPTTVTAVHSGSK

[13] = molecular target: MAP2K3 (human) (UniProt P46734)
[14] = molecular target: BMPR2 (human) (UniProt Q13873)
[15] = molecular target: ITK (human) (UniProt Q08881)
[16] = molecular target: RPS6KA1 KD1 (human) (UniProt Q15418)
[17] = molecular target: SLK (human) (UniProt Q9H2G2)
[18] = molecular target: CHEK1 (human) (UniProt O14757)
[19] = molecular target: FGR (human) (UniProt P09769)
[20] = molecular target: FLT1 (human) (UniProt P17948)
[21] = molecular target: CLK1 (human) (UniProt P49759)
[22] = molecular target: DCLK3 (human) (UniProt Q9C098)
[23] = molecular target: PKN2 (human) (UniProt Q16513)
[24] = molecular target: LATS2 (human) (UniProt Q9NRM7)
[25] = molecular target: INSR (human) (UniProt P06213)
[26] = molecular target: RPS6KA6 KD1 (human) (UniProt Q9UK32)
[27] = molecular target: PRKD1 (human) (UniProt Q15139)
[28] = molecular target: STK32B (human) (UniProt Q9NY57)
[29] = molecular target: IGF1R (human) (UniProt P08069)
[30] = molecular target: CDK3 (human) (UniProt Q00526)
[31] = molecular target: FGFR1 (human) (UniProt P11362)
[32] = molecular target: TXK (human) (UniProt P42681)
Sequence of TXK (human) (P42681 whole entry, looked up): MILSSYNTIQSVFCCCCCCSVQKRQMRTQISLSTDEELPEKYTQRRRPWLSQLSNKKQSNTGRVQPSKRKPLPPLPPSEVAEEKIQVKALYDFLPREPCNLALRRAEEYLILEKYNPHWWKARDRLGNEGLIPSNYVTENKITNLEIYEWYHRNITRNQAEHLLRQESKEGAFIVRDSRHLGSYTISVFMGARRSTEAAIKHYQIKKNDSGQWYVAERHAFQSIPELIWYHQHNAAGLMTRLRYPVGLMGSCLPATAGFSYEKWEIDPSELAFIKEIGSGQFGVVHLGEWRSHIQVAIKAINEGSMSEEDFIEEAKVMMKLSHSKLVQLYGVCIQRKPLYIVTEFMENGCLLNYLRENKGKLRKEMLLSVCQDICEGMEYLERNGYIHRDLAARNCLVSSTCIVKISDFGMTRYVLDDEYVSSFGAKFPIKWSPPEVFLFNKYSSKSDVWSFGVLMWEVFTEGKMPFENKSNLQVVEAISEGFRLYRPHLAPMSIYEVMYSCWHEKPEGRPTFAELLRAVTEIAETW

[33] = molecular target: CAMK1G (human) (UniProt Q96NX5)
[34] = molecular target: ULK3 (human) (UniProt Q6PHR2)
[35] = molecular target: PIK3C2B (human) (UniProt O00750)
[36] = molecular target: CLK2 (human) (UniProt P49760)
[37] = molecular target: MERTK (human) (UniProt Q12866)
Sequence of MERTK (human) (Q12866 whole entry, looked up): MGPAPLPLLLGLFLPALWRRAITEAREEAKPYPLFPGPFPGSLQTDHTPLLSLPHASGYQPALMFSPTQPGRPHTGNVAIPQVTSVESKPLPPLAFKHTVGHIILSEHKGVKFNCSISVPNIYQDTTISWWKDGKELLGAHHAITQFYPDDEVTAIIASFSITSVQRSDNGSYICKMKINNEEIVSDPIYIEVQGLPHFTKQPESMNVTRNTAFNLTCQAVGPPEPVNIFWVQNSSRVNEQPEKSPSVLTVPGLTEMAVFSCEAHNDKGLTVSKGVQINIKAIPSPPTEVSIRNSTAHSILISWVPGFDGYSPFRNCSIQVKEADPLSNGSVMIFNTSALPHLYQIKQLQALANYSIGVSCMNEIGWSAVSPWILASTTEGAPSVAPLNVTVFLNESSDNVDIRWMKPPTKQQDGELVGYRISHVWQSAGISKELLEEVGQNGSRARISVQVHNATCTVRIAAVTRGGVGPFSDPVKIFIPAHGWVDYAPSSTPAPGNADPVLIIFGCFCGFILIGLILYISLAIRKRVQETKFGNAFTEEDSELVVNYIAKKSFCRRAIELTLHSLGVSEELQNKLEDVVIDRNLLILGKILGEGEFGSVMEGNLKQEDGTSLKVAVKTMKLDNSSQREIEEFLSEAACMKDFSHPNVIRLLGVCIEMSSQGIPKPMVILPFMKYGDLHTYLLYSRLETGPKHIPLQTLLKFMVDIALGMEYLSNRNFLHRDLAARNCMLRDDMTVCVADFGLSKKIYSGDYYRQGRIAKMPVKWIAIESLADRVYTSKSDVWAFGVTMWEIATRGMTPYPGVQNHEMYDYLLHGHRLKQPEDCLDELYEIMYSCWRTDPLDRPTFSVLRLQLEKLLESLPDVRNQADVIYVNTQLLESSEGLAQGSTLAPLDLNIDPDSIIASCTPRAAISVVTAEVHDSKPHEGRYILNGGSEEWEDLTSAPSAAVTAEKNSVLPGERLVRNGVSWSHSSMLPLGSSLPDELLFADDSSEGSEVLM

[38] = molecular target: CHUK (human) (UniProt O15111)
[39] = molecular target: PRKAA1 (human) (UniProt Q13131)
Sequence of PRKAA1 (human) (Q13131 whole entry, looked up): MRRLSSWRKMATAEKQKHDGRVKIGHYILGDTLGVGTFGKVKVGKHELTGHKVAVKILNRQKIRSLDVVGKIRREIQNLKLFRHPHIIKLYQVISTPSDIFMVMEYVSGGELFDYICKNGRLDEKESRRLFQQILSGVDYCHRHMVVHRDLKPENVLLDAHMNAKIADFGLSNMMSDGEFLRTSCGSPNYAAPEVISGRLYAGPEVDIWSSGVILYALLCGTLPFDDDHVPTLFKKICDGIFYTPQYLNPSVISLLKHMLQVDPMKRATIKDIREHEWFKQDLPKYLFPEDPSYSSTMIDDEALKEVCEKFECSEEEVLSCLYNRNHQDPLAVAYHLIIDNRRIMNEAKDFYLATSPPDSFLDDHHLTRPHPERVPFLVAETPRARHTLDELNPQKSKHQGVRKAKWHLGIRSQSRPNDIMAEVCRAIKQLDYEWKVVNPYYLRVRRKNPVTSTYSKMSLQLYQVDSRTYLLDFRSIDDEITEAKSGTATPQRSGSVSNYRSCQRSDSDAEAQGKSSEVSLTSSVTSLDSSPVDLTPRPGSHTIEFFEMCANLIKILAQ

[40] = molecular target: HIPK1 (human) (UniProt Q86Z02)
Sequence of HIPK1 (human) (Q86Z02 whole entry, looked up): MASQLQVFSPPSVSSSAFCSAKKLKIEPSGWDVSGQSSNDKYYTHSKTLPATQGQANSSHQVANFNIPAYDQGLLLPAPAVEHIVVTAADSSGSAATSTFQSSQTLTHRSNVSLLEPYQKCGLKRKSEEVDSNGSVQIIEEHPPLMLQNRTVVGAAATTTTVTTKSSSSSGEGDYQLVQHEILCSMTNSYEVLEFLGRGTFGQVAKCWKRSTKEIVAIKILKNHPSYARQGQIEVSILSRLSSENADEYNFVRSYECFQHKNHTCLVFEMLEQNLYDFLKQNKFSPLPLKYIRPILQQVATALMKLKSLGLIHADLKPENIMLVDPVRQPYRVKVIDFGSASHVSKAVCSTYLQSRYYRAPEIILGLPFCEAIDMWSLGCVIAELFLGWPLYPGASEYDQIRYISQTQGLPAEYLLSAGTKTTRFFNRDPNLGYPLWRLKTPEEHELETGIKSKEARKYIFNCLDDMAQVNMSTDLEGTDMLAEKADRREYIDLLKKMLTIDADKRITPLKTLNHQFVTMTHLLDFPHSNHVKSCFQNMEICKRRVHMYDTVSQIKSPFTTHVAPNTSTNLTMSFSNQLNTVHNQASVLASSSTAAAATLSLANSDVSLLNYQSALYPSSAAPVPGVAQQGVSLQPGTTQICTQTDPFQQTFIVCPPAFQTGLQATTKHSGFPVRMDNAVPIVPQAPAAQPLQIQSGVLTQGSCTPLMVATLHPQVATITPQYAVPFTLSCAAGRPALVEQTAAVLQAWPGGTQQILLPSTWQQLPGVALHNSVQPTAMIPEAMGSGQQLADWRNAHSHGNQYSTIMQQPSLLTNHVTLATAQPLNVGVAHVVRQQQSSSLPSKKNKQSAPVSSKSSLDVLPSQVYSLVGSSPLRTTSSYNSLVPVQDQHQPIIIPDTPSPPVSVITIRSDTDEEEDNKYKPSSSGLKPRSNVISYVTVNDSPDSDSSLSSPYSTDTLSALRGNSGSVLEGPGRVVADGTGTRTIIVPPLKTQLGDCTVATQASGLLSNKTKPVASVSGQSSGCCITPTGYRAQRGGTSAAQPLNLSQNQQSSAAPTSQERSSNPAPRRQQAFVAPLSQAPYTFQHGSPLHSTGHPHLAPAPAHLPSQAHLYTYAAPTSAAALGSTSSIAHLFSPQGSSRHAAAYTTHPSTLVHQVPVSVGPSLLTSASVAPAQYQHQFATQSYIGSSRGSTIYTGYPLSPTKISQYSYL

Sequence of MAP3K10 (human) (Q02779 whole entry, looked up): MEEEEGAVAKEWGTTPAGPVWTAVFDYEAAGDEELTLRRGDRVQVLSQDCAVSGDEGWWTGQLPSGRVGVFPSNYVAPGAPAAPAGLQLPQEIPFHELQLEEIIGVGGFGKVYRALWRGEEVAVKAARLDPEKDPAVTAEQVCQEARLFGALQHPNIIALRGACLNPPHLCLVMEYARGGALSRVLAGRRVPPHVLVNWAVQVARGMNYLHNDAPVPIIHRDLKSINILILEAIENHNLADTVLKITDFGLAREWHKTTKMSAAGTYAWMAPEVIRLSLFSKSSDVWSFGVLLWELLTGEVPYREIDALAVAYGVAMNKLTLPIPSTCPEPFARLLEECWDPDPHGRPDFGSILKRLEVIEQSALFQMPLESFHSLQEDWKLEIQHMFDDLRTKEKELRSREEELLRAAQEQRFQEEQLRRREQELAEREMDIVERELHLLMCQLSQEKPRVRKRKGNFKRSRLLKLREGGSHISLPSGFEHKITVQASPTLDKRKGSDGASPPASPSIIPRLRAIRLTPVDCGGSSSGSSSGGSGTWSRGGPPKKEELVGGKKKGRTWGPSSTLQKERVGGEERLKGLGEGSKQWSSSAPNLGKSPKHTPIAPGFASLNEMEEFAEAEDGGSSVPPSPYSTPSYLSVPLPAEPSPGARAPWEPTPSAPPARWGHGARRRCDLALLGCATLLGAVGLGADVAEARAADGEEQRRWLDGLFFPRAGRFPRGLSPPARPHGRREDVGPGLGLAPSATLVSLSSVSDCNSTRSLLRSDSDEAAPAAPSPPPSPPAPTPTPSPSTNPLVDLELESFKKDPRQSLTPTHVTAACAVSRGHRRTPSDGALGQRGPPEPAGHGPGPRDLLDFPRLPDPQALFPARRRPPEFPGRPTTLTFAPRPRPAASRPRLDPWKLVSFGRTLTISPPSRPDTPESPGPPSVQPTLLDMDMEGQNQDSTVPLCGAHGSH
Sequence of DAPK2 (human) (Q9UIK4 whole entry, looked up): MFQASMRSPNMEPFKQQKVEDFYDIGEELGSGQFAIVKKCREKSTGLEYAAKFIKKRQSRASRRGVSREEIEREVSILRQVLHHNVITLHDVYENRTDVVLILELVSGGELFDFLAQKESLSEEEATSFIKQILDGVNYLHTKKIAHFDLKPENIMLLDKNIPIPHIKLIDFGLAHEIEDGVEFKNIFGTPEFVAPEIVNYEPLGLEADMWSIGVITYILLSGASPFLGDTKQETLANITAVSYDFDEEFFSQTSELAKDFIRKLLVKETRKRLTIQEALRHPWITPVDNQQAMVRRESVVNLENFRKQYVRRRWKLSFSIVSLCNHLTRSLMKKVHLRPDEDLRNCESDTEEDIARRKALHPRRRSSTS

For `C=CC(=O)Nc1cccc(Oc2nc(Nc3ccc(N4CCN(C)CC4)cc3OC)ncc2Cl)c1`, the kinase still bound, per cent of control [1] was 100%, the kinase still bound, per cent of control [2] was 28% and the kinase still bound, per cent of control [3] was 27%. For the same compound, the kinase still bound, per cent of control [4] was 100%, the kinase still bound, per cent of control [5] was 100% and the kinase still bound, per cent of control [6] was 100%. For the same compound, the kinase still bound, per cent of control [7] was 100%, the kinase still bound, per cent of control [8] was 100% and the kinase still bound, per cent of control [9] was 15%. It also gave a kinase still bound, per cent of control [10] of 2%, a kinase still bound, per cent of control [11] of 100% and a kinase still bound, per cent of control [12] of 27%. It also gave a kinase still bound, per cent of control [13] of 100%, a kinase still bound, per cent of control [14] of 8.6% and a kinase still bound, per cent of control [15] of 0.55%. The kinase still bound, per cent of control [16] was 12%, the kinase still bound, per cent of control [17] was 100% and the kinase still bound, per cent of control [18] was 7%. For the same compound, the kinase still bound, per cent of control [19] was 100%, the kinase still bound, per cent of control [20] was 100% and the kinase still bound, per cent of control [21] was 13%. For the same compound, the kinase still bound, per cent of control [22] was 0.35%, the kinase still bound, per cent of control [23] was 100% and the kinase still bound, per cent of control [24] was 100%. For the same compound, the kinase still bound, per cent of control [25] was 17%, the kinase still bound, per cent of control [26] was 100% and the kinase still bound, per cent of control [27] was 12%. It also gave a kinase still bound, per cent of control [28] of 100%, a kinase still bound, per cent of control [29] of 7.4% and a kinase still bound, per cent of control [30] of 100%. The kinase still bound, per cent of control [31] was 10%, the kinase still bound, per cent of control [32] was 16% and the kinase still bound, per cent of control [33] was 100%. For the same compound, the kinase still bound, per cent of control [34] was 12%, the kinase still bound, per cent of control [35] was 100% and the kinase still bound, per cent of control [36] was 100%. It also gave a kinase still bound, per cent of control [37] of 100%, a kinase still bound, per cent of control [38] of 100% and a kinase still bound, per cent of control [39] of 28%. For the same compound, the kinase still bound, per cent of control [40] was 100%.
